Assay results taken from US20020169128A1, “Erythropoietin ameliorates chemotherapy-induced toxicity in vivo” (priority 2001, published 2002).

How the values were obtained:
C57B16 female mice = assay: Pulmonary function (Penh) by whole body plethysmography after graded methacholine challenge in mice treated with EPO and/or bleomycin; assay type: in vivo; conditions: treated twice a week for two weeks, i.p., FIG. 1
Procedure: C57B16 female mice between 7 and 12 weeks old weighing approximately 20 grams were treated with varying doses of EPO alone and in combination with bleomycin. Animals were treated twice a week with placebo, EPO alone (5-40 μg/mouse, i.p.), bleomycin alone (0.25-0.75 μg/mouse, i.p.), or EPO and bleomycin in combination. […] At these time points, pulmonary function was measured using a full body plethysmograph (Buxco, Niskayuna, N.Y.). This is a noninvasive method utilizing a clear plastic animal chamber fitted with two pneumotachs and a transducer which interface with a computer. Pulmonary resistance and dynamic compliance is evaluated by an analyzer which measures flow and pressure readings at equivalent lung volumes during inspiration and expiration (“Iso-Volumetric Method”). Artifacts from animal movement or atypical breaths (e.g. from “sniffing”) are ignored by computer analysis using parameters that can be adjusted as appropriate for the tidal volume and inspiratory time of the individual animal. The method of whole body plethysmography has been studied and found to be a valid index of pulmonary function in the mouse (Hamelmann et al., Am. J. Respir. Crit. Care Med. 156)3 Pt1) 776-75 (1997). […] A similar pattern of the Penh values was observed when pulmonary functions were performed at four weeks of treatment (see FIG. 2).

[1] = doses of up to 1,500 Units/kg for three to four weeks; cited from earlier work

Substance | worsening in Penh values compared with control animals (C57B16 female mice; graded (0 to 48 mg/ml) methacholine challenge) | toxic effects due to EPO itself [1] | pulmonary function (Penh), EPO given in the absence of bleomycin (C57B16 female mice; graded methacholine challenge)
bleomycin [reference compound] | 2.6 fold | – | –
erythropoietin [EPO] | – | without toxic effects | slight enhancement of pulmonary function
